# Experimental data from US20240225985A1, “BRIGHTENING COMPOSITIONS AND METHODS OF USE” (Alastin Skincare, Inc., priority 2021, published 2024).
# Ends that are not written are not given here. * marks the point of attachment. Palmitoyl = CCCCCCCCCCCCCCCC(=O)*
# Tests used:
# melanocytes [1] = assay: In vitro melanocyte comparative analysis via absorbance readings (melanin production); type: cell-based; details: for Regulation of melanogenesis (decreased absorption denoting decreased melanin formation): melanocytes, summary of Table 10
# Protocol: Melanocytes were cultured in 6-well plates containing growth media. Once confluent, 2 concentrations of each of the 10 compounds were added to the cells in triplicate wells for 4 days. There were a total of eleven 6-well plates, one for each compound treatment and one for the vehicle control. Absorbance readings were taken on the lysates prepared for each well of the 6-well plates, normalizing for cells counts. The model was initially tested for accuracy and validated using hexapeptide-12 in view of strong gene expression results with melanocyte cell line in the first study—confirmation of decreased stimulation was obtained. Additional validation was carried out using MSH addition to media to confirm increased stimulation of melanin production. The following compounds used in this study are seen in Table 9.
# endothelial cells = assay: Gene expression of PMEL, tyrosinase genes, MC1/4R, EDNRB, MITF, ERK1/2, JNK, AKT1; type: cell-based; details: after treatment of endothelial cells as printed
# Excerpt: The methods similar to Examples 3-4 were used to measure expression of PMEL, tyrosinase genes, MC1/4R, EDNRB, MITF, ERK1/2, JNK, and ANKT1.
# FIGS. 10A-10D illustrates the expression of PMEL (FIG. 10A), Tyrosinase genes (FIG. 10B), MC1/4R (FIG. 10C), and EDNRB (FIG. 10D) after treatment of endothelial cells with lactoferrin (Lacto), peptide derived from lactoferrin (TCV), hexapeptide-12 (Hex12), tripeptide-1 and hexapeptide-12 (TriHex), hexapeptide-11 (Hex11), tranexamic acid (Tran acid) octapeptide (Octa), phosphatidylserine (phos), Cannabidiol (CBD), and all (total).
# MITF is regulated by phosphorylation. Specifically, the MAPK and Akt pathways are known to phosphorylate MITF at certain sites. FIGS. 12A-12C illustrate the expression of ERK1/2 (MAPK3/MAPK1) (FIG. 12A), JNK (FIG. 12B), AKT1 (FIG. 12C) after treatment of endothelial cells with lactoferrin (Lacto), peptide derived from lactoferrin (TCV), hexapeptide-12 (Hex12), tripeptide-1 and hexapeptide-12 (TriHex), hexapeptide-11 (Hex11), octapeptide (Octa), phosphatidylserine (phos), Cannabidiol (CBD), and all (total).
# MITF = assay: In vitro MITF gene expression test in cultured fibroblasts; type: cell-based; details: 48 hours, 80 ppm Hexapeptide-12, 120 ppm Tripeptide-1 or blend of both, negative = downregulation
# Protocol: Microphthalmia-associated transcription factor (MITF) is a master regulator of pigmentation and melanin transfer and a potential new target for hyperpigmentation and melanoma. In vitro MITF gene expression tests were carried out to ascertain differences between individual peptides (tripeptide-1 and hexapeptide-12) and their combination in terms of MITF downregulation.
# Specifically, the tests were conducted by culturing fibroblasts and then adding tripeptide-1, hexapeptide-12, or a combination of both. After 48 hours, MITF gene expression was analyzed. […] This increased expression continued to manifest and increased even further at the 72 hour time point.
# melanocytes [2] = assay: Gene expression study (RNA sequencing) in PGE2-induced melanocytes; type: cell-based, human; details: melanocytes induced with 10 uM PGE2, 24 hours of compound exposure
# Protocol: Four cell types associated with pigmentation pathways—melanocytes, keratinocytes, fibroblasts and endothelial (HUVEC) cells—were analyzed for gene expression.
# To simulate the UV stimulatory pigmentation pathway process, melanocytes were pre-treated with PGE2, a normal direct consequence of UV light exposure usually emanating from exposed keratinocytes. After the 48 hour attachment culture, these melanocytes were induced with 10 uM PGE2 in melanocyte media for 24 hrs. The four primary human adult dermal cell lines were cultured and plated in well plates in triplicate and then treated with 11 different compound treatments (plus DMSO control). After 48 hours of attachment culture, the remaining fibroblasts, HUVECs and keratinocytes were treated with the test compounds listed in Table 8.
# After 24 hours of compound exposure, RNA lysate preparation was carried out and samples were shipped to MedGenome for RNA extraction, library construction and sequencing to 25M paired end 100 bp reads per sample. Library prep and sequencing was completed at MedGenome.
# [3] = higher concentration (Lactoferrin 1000, HEX-11 200, Phosphatidylserine 500, Silymarin 20, Sesamol 100, Tranexamic Acid 1000, HEX-12 4.9, ug/mL or ug/uL; Phytoene/Phytofluene 5.00%), 4 days, control = 0.0 row
# [4] = lower concentration (Lactoferrin 500, HEX-11 100, Phosphatidylserine 250, Silymarin 10, Sesamol 50, Tranexamic Acid 500, HEX-12 2.9, ug/mL or ug/uL; Phytoene/Phytofluene 2.50%), 4 days, control = 0.0 row
Compound,Absorbance 405 nm (melanocytes [1]; [3]),Absorbance 490 nm (melanocytes [1]; [3]),Absorbance 492 nm (melanocytes [1]; [3]),Absorbance 405 nm (melanocytes [1]; [4]),Absorbance 490 nm (melanocytes [1]; [4]),Absorbance 492 nm (melanocytes [1]; [4]),Regulation of melanogenesis (decreased absorption denoting decreased melanin formation) (melanocytes [1]),"melanogenic activity (expression of PMEL, tyrosinase genes, MC1/4R, EDNRB, kinases) (endothelial cells)","melanogenic activity (expression of PMEL, tyrosinase genes, MC1/4R, EDNRB, kinases) (endothelial cells; listed as hexapeptide-12)",MITF gene expression (down-/upregulation) (MITF),melanogenic gene activity in melanocytes (melanocytes [2]),melanogenic gene activity in melanocytes (melanocytes [2]; listed as hexapeptide-12),"Absorbance 405 nm (melanocytes [1]; MSH 10 nm media (validation of increased melanin production), control 1.649)","Absorbance 492 nm (melanocytes [1]; MSH 10 nm media, control 0.501)","Absorbance 490 nm (melanocytes [1]; MSH 10 nm media, control 0.971)",MITF gene expression (down-/upregulation) (MITF; listed as Tripeptide),MITF gene expression (down-/upregulation) (MITF; listed as tripeptide-1)
"Oc1ccc2c(c1)OCO2 [Sesamol, 3,4-Methylenedioxyphenol]",0.465,0.252,0.183,0.602,0.361,0.24,Regulation of melanogenesis was also observed,,,,,,,,,,
"NC[C@H]1CC[C@H](C(=O)O)CC1 [Tranexamic Acid, Tranexamic acid]",0.406,0.243,0.176,0.395,0.254,0.187,Regulation of melanogenesis was also observed,,,,,,,,,,
Hexapeptide-12: hexapeptide-12; VGVAPG per Pal-VGVAPG (SEQ ID NO:25) in b49 (Palmitoyl-VGVAPG),0.96,0.64,0.46,1.32,0.94,0.64,Regulation of melanogenesis was observed,significant effects on such melanogenic activity,robust melanogenic activity,−1.16,particularly dominant in melanogenic activity,significant effects on melanogenesis activity,,,,,
"MSH: MSH addition to media to confirm increased stimulation of melanin production (SYSMEHFRWGKPV; ends and bridges not checked; UniProt P01189 138-150, looked up)",,,,,,,,,,,,,1.921,0.573,1.155,,
Tripeptide-1,,,,,,,,,,,,,,,,1.72,+1.72
